According to PubChem BioAssay (NCI):
Where “and” joins values, the source holds several entries; their conditions need not be identical. Identical values can stand only once.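 Growth conditions: 96-well plates. Treatment: test compound, 48 hours, 5 concentrations. Analysis: linear interpolation between bracketing concentrations; unreached endpoints set to highest concentration. GI50 marks 50% less growth. The concentration for full growth arrest is given as TGI.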

Legend:
Assay in all cases: growth of human tumour cells (NCI), 48 h
UO-31 renal = system: UO-31 renal
ACHN renal = system: ACHN renal
SW-620 colon = system: SW-620 colon
KM12 colon = system: KM12 colon
A498 renal = system: A498 renal
HS 578T breast = system: HS 578T breast
HCC-2998 colon = system: HCC-2998 colon
MALME-3M melanoma = system: MALME-3M melanoma
SF-295 CNS = system: SF-295 CNS
SN12C renal = system: SN12C renal
PC-3 prostate = system: PC-3 prostate
M14 melanoma = system: M14 melanoma
UACC-257 melanoma = system: UACC-257 melanoma

Row | Compound | TGI (UO-31 renal) | TGI (ACHN renal) | TGI (SW-620 colon) | TGI (KM12 colon) | TGI (A498 renal) | TGI (HS 578T breast) | TGI (HCC-2998 colon) | TGI (MALME-3M melanoma) | TGI (SF-295 CNS) | TGI (SN12C renal) | TGI (PC-3 prostate) | TGI (M14 melanoma) | TGI (UACC-257 melanoma) | GI50 (UO-31 renal) | GI50 (KM12 colon) | GI50 (PC-3 prostate) | GI50 (M14 melanoma) | GI50 (UACC-257 melanoma) | GI50 (SF-295 CNS)
1 | O=C1CC(CC(=O)c2ccc(Br)cc2)C(=O)/C1=C(/O)c1ccc(Br)cc1 (stereo not drawn) | > 100 µM | > 100 µM | > 100 µM | > 100 µM | > 100 µM | > 100 µM | > 100 µM | > 100 µM | > 100 µM | > 100 µM | > 100 µM | > 100 µM | > 100 µM | – | – | – | – | – | –
2 | CC(C)(Cl)C(Br)CCC(Br)(CCl)C(Cl)CBr (stereo not drawn) | > 10 µM | > 10 µM | > 10 µM | > 10 µM | > 10 µM | > 10 µM | > 10 µM | > 10 µM | > 10 µM | > 10 µM | > 10 µM | > 10 µM | > 10 µM | – | – | – | – | – | –
3 | CC1=C(O)c2ccccc2C(=O)C1=O | > 65.3 µM | > 100 µM | > 100 µM | > 100 µM | > 100 µM | > 100 µM | > 100 µM | > 100 µM | > 100 µM | > 100 µM | > 100 µM | > 100 µM | > 100 µM | – | – | – | – | – | –
4 | COc1ccc(COC(=O)NCC(=O)NC(C)C(=O)NC(Cc2ccccc2)C(=O)OCc2ccccc2)cc1 (stereo not drawn) | 44.9 µM and > 100 µM | 44.5 µM and 36.7 µM | > 100 µM | > 100 µM and 46.3 µM | 38.8 µM and > 100 µM | 70.3 µM and 63.9 µM | 64.3 µM and 37.4 µM | 37.6 µM and 92.3 µM | 47.8 µM and 39.1 µM | > 100 µM and 51.9 µM | 47.8 µM and > 100 µM | 31.8 µM and > 100 µM | 29.8 µM and > 100 µM | 23.2 µM and 69.6 µM | 62.8 µM and 23.9 µM | 20 µM and > 100 µM | 18 µM and 37.5 µM | 15.7 µM and > 100 µM | –
5 | CCC1(c2ccc(N3C(=O)c4cc(OC)c(OC)cc4C3=O)cc2)CCC(=O)NC1=O (stereo not drawn) | > 10 µM | > 10 µM | > 10 µM | > 10 µM | > 10 µM | > 10 µM | > 10 µM | > 10 µM | > 10 µM | > 10 µM | > 10 µM | > 10 µM | > 10 µM | – | – | – | – | – | –
6 | COc1ccccc1C(O)[C@@H]1C[C@@H]2[C@H]3CC[C@@](C)([C@@H]2O1)C3(C)C (stereo partly drawn) | 32.4 µM | 35.4 µM | 37.9 µM | 41.6 µM | 29.5 µM | 35.3 µM | 41.8 µM | 30.2 µM | 34.6 µM | 30.3 µM | 45.2 µM | 40.1 µM | 39 µM | – | – | – | – | – | –
7 | COc1ccc(N=NC(=O)NC(CC(C)C)C(=O)NCC(=O)O)cc1 (stereo not drawn) | 10.7 µM | > 100 µM | > 100 µM | > 100 µM | > 100 µM | > 100 µM | > 87.5 µM | > 100 µM | > 100 µM | > 100 µM | > 100 µM | > 100 µM | > 100 µM | – | – | – | – | – | –
8 | CCN(CC)CCN(C)c1ccc(CO)c2c1C(=O)c1ccccc1S2=O (stereo not drawn) | 42.1 µM | 23.8 µM | 3.63 µM | 4.55 µM | 23.4 µM | 28.5 µM | 2.99 µM | 27.2 µM | 28 µM | 28.9 µM | 46 µM | 4.11 µM | 3.55 µM | – | – | – | – | – | –
9 | COc1cccc(C2SC(N)=Nc3c2c(C)nn3C(=O)Cc2ccccc2)c1 (stereo not drawn) | > 100 µM | > 100 µM | > 100 µM | > 100 µM | > 100 µM | > 100 µM | > 100 µM | > 100 µM | > 100 µM | > 100 µM | > 100 µM | > 100 µM | > 100 µM | – | – | – | – | – | –
10 | Cc1ccc(C)n2c1nc1ccccc12 | > 100 µM | > 100 µM | > 100 µM | > 100 µM | 33.7 µM | > 100 µM | > 100 µM | > 100 µM | > 100 µM | > 100 µM | > 100 µM | > 100 µM | > 100 µM | – | – | – | – | – | –
11 | Clc1ccc(CCN[C@H]2CCCC[C@H]2N2CCCC2)cc1Cl | 31.2 µM | > 100 µM | > 100 µM | 35.1 µM | 40.5 µM | > 100 µM | 22.3 µM | 30.3 µM | 30.2 µM | 54.3 µM | > 100 µM | 30.3 µM | 28.5 µM | – | – | – | – | – | –
12 | CC(C)CC(N)C(=O)Nc1ccc2ccccc2c1 (stereo not drawn) | > 100 µM | > 100 µM | > 100 µM | > 100 µM | > 100 µM | > 100 µM | > 100 µM | > 100 µM | > 100 µM | > 100 µM | > 100 µM | > 100 µM | > 100 µM | – | – | – | – | – | –
13 | COc1ccccc1/C=C/C1=NN(c2cccc(S(=O)(=O)O)c2)C2(C1)C(Cl)C(=O)N2c1nc2ccccc2s1 (stereo not drawn) | 33.5 µM | > 100 µM | > 100 µM | > 100 µM | > 100 µM | > 100 µM | > 100 µM | > 100 µM | > 100 µM | > 100 µM | > 100 µM | > 100 µM | > 100 µM | – | – | – | – | – | –
14 | CCCSc1ccc2[nH]c(N3C(=O)/C(=C/c4ccc(SC)cc4)N=C3c3ccccc3)cc2c1 | > 50 µM | > 50 µM | > 50 µM | 32.7 µM | > 50 µM | > 50 µM | > 50 µM | > 50 µM | > 50 µM | > 50 µM | > 50 µM | > 50 µM | > 50 µM | – | – | – | – | – | –
15 | CC(=O)NCC1OC2COC(c3ccccc3)OC2C(NC(=O)c2ccccc2)C1OC(=O)c1ccccc1 (stereo not drawn) | > 100 µM | > 100 µM | > 100 µM | > 100 µM | > 100 µM | > 100 µM | > 100 µM | > 100 µM | > 100 µM | > 100 µM | > 100 µM | > 100 µM | > 100 µM | – | – | – | – | – | –
16 | Cc1ccc2nc(C(C)C)c(=O)[nH]c2c1 | > 100 µM | > 100 µM | > 100 µM | > 100 µM | > 100 µM | > 100 µM | > 100 µM | > 100 µM | > 100 µM | > 100 µM | 34.1 µM | > 100 µM | > 100 µM | – | – | – | – | – | –
17 | O=C(NNC(=S)NC1CCCCC1)C12CC3CC(CC(C3)C1)C2 | > 100 µM | > 100 µM | > 100 µM | > 100 µM | > 100 µM | > 100 µM | > 100 µM | > 100 µM | > 100 µM | > 100 µM | > 100 µM | > 100 µM | > 100 µM | – | – | – | – | – | –
18 | Cc1ccc2c(=O)cc(-c3ccc4ccccc4c3)[nH]c2n1 | > 100 µM | > 100 µM | > 100 µM | 65.4 µM | 15.5 µM | 20 µM | 68.6 µM | > 100 µM | 39.6 µM | > 100 µM | 9.61 µM | > 100 µM | > 100 µM | – | – | 2.62 µM | – | – | 3.8 µM
19 | CCOP(=O)(OCC)C(C(=O)OC)C(=O)C(=O)Nc1cccc(O)c1 (stereo not drawn) | > 100 µM | > 100 µM | > 100 µM | > 100 µM | > 100 µM | > 100 µM | > 100 µM | > 100 µM | > 100 µM | > 100 µM | > 100 µM | > 100 µM | > 100 µM | – | – | – | – | – | –
20 | CC1=CC[C@@]2(C)CC[C@](O)(C(C)C)C2C(OC(=O)c2ccccc2)C1 (stereo partly drawn) | 32.6 µM | 32.1 µM | 54.4 µM | 40.3 µM | 50.8 µM | 47.9 µM | 25 µM | 41.6 µM | 34.8 µM | 44.9 µM | 45.6 µM | 37.8 µM | 35.1 µM | – | – | – | – | – | –
21 | CC(C)=CCC[C@@H](C)C1=C(O)C(Nc2ccccc2Cl)=C(C)C(=O)C1=O | > 49.5 µM | > 46.6 µM | > 75 µM | 30 µM | > 56.9 µM | > 69.9 µM | > 56.6 µM | 29.3 µM | 34.2 µM | > 75 µM | > 64.2 µM | > 59.9 µM | > 75 µM | – | – | – | – | – | –
22 | O=C(/C=C/c1ccccc1)Nc1ccccc1SCCCCl | 91.6 µM | > 100 µM | > 62.4 µM | > 64.6 µM | > 29.5 µM | > 29.3 µM | 73.9 µM | > 100 µM | 49.4 µM | 98.5 µM | > 100 µM | > 100 µM | > 100 µM | – | – | – | – | – | –
23 | COc1ccc2c(c1)/C(=C\c1c(Cl)[nH]c3ccccc13)C(=O)N2 | 20.2 µM | 20.8 µM | 13.4 µM | 15.1 µM | 23.7 µM | 9.88 µM | 13.3 µM | 19.2 µM | 6.26 µM | 24.7 µM | 18 µM | 16.2 µM | 20.4 µM | – | – | – | – | – | –
24 | COC(=O)c1cc(NC(=O)Cc2c[nH]c3ccccc23)cn1C | > 100 µM | > 100 µM | > 100 µM | > 100 µM | > 100 µM | > 100 µM | > 100 µM | > 100 µM | > 100 µM | > 100 µM | > 100 µM | > 100 µM | > 100 µM | – | – | – | – | – | –
25 | O=C1O[C@H]2[C@H](OC(=O)c3cc(O)c(O)c(O)c3)[C@@H](OC(=O)c3cc(O)c(O)c4c3[C@@H]3C1=CC(=O)C(O)(O)C3(O)O4)[C@H](OC(=O)c1cc(O)c(O)c(O)c1)O[C@@H]2COC(=O)c1cc(O)c(O)c(O)c1 (stereo partly drawn) | > 100 µM | > 100 µM | > 100 µM | 41.1 µM | > 100 µM | > 100 µM | > 100 µM | > 100 µM | > 100 µM | > 100 µM | > 100 µM | > 100 µM | > 100 µM | – | – | – | – | – | –
26 | CCOC(=O)/C=C(/C(=O)OCC)n1ccc(=O)n(Cc2cnnn2COCCOC(C)=O)c1=O | 29.6 µM | 22.1 µM | 14.2 µM | > 56.4 µM | 65 µM | 56.7 µM | 31.5 µM | 26.3 µM | > 100 µM | 47.9 µM | 34.2 µM | 38.8 µM | 31.3 µM | – | – | – | – | – | –
27 | CCCCc1ccc(Nc2nc(OC)c3ncn(C4CC(O)C(CO)O4)c3n2)cc1 (stereo not drawn) | 35.7 µM | 31.2 µM | 39.8 µM | 32 µM | 35.3 µM | 42 µM | 20.4 µM | 42.7 µM | 36.5 µM | 26.5 µM | 37.5 µM | 85.6 µM | 34.6 µM | – | – | – | – | – | –
